half-life (buffer, pH 9.5): 20 h | amount lost on freezing and thawing (pH 8.0 in potassium phosphate buffer): 50% | decomposition on freezing and thawing (pH 9.5 (Tris-HCl)): about 2% | amount lost on storage (solution stored on ice for 50 h, 0.34 mM): 30%
SMILES: NC(=CC=CC(=O)O)C(=O)O [2-Aminomuconate, 2-aminohexa-2,4-diene-1,6-dioate]

Source: patent US6432683B1, “Preparation of 2-aminomuconate from 2-aminophenol by coupled enzymatic dioxygenation and dehydrogenation reactions” (The United States of America as represented by the …, priority 2000, dated 2002)
